Experiments:
[1] = test system: 59Fe-loaded reticulocytes; test: mobilisation of 59Fe from 59Fe-loaded reticulocytes (mitochondrial Fe overload model); type: cell-based, rabbit
Experimental: (§1) FIG. 7. The effect of reincubation time with the Fe chelators on ^59Fe mobilization from ^59Fe-loaded reticulocytes. The cells were labelled with ^59Fe-transferrin (3.75 μM) in the presence of the heme synthesis inhibitor, succinylacetone (1 mM), and incubated with the cells for 1 h at 37° C. The ^59Fe-labelled reticulocytes were then incubated with the chelators (200 μM) for 15–240 min at 37° C. The results are Mean±SD (3 determinations) in a typical experiment of three performed.
as §1, with “9.” for “7.”, “chelator concentration” for “reincubation time with the Fe chelators”, “(10–200” for “(200”
Reticulocytosis was induced by standard procedures (Richardson, D. R., Ponka, P and Vyoral, D (1996) Blood 87, 3477–3488) in New Zealand white rabbits by repeated phlebotomy by cardiac puncture using a protocol approved by the McGill University Animal Care Committee. Reticulocytes were identified based on staining with new methylene blue, and cell counts were determined using an improved Neubauer counting chamber.
Reticulocytes were obtained from chronically bled rabbits as described above and were incubated with 1 mM succinylacetone (SA: Sigma) to inhibit heme synthesis. After a 15 min preincubation in the presence of SA, ^59Fe-Tf ([…]) was added and incubated with the cells for 1 H at 37° C. with shaking. After this incubation the reticulocytes were washed three times with ice-cold PBS to remove non-specifically bound ^59Fe-Tf. The washed ^59Fe-labelled reticulocytes (30–35 μL) were incubated in buffered salt solution (250 μL final volume) with the apochelators. The SA was present in all incubations with the chelators to prevent the utilization of non-heme ^59Fe for heme synthesis. After the incubation, ^59Fe was measured both in washed reticulocytes and in the medium, and the percentage of ^59Fe mobilized from the reticulocytes was then calculated.

neuroblastoma (NB) = details: cited from earlier work
[2] = test system: SK-N-MC neuroepithelioma cells; test: 59Fe release from prelabelled cells (iron efflux); type: cell-based, human; details: chelators 0.5–50 μM, 'most effective' refers to concentrations up to 10 μM
[3] = test system: SK-N-MC neuroepithelioma cells; test: internalized 59Fe uptake from 59Fe-transferrin; type: cell-based, human; details: chelators 0.5–50 μM, 3 hr, 'most effective' refers to concentrations up to 10 μM

With `CC(=O)N(O)CCCCCNC(=O)CCC(=O)N(O)CCCCCNC(=O)CCC(=O)N(O)CCCCCN` [DFO, desferrioxamine, reference compound] as the compound, how does the “effect on mobilizing 59Fe from 59Fe-loaded reticulocytes at high concentrations” value ([1]; high concentrations up to 5 mM, activity similar to control medium) read?
The value was “little effect”.

What about the “decrease in bone infiltration of tumor cells” value (neuroblastoma (NB); 7 of 9 patients with neuroblastoma, 8 hr intravenous infusion) of the same compound?
The value was > 50%.

And the “decrease in tumor size” value (neuroblastoma (NB); in 1 patient with neuroblastoma)?
The value was 48%.

What does the source list for `O=C(NN=Cc1ccco1)c1ccncc1` [FIH, 2furoylcarboxaldehyde isonicotinoyl hydrazone]?
cellular 59Fe released from 59Fe-loaded reticulocytes, 1 h reincubation (FIG. 9) ([1]; chelator concentration 200 μM (range 10–200 μM), reincubated 1 h at 37° C., 3 determinations): very low activity; cellular 59Fe mobilized from 59Fe-loaded reticulocytes after 240 min ([1]; chelators 200 μM, 240 min of incubation, FIG. 7): 4%

Which “efficacy at mobilizing 59Fe as a function of chelator concentration (FIG. 3A)” value [2] does the source give for `O=C(NN=Cc1ccccn1)c1cccs1` [PCTH, 2-pyridylcarboxaldehyde 2-thiophenecarboxyl hydrazone] here?
Its value is “most effective chelators”.

What about the “efficacy at preventing 59Fe uptake from 59Fe-Tf as a function of chelator concentration (FIG. 3B)” value [3] of the same compound?
Its value is “most effective chelators”.

— patent US6989397B1, “Iron chelators and uses thereof” (University of Queensland, priority 1999, dated 2006)
